In patent publication US20090203739A1, “Anti-Inflammatory Agents” (priority 2005, published 2009):
Bridges are numbered along the chain shown (N, C = ends). Where no end group is shown, it is not given here. [ ]: non-standard residue; d: D form.

What was measured:
[1] = tested on: chemokine-induced migration; conditions: versus (S)-3-(undec-10-enoyl)-aminoglutarimide; cited from earlier work
Stability in serum = format: in vitro ADME; conditions: 37° C., completely stable
Excerpt: As an approach to identifying such stable analogs, various derivatives of (S)-3-(undec-10-enoyl)-aminoglutarimide have been tested for their stability in serum.

[2] = tested on: MCP-1 induced leukocyte migration (THP-1 cells); test: Inhibition of MCP-1 induced leukocyte migration (96-well transwell assay, THP-1 cells); format: cell-based; conditions: Homo sapiens, MCP-1 25 ng/ml, 2 hours at 37° C., read-out: ED50 (concentration of compound required to reduce the MCP-1-induced migration by 50%)
Description: In principle, this assay consists of two chambers separated by a porous membrane. The chemoattractant is placed in the lower compartment and the cells are placed in the upper compartment. After incubation for a period at 37° C. the cells move towards the chemoattractant, and the number of cells in the lower compartment is proportional to the chemoattractant activity (relative to a series of controls).
The THP-1 cell line (European Cell culture Collection) were used as the leukocyte cell population.
The following procedure is used for testing the invention compounds for MCP-1 induced leukocyte migration:
First, the cell suspension to be placed in the upper compartment is prepared. The THP-1 cells are pelleted by centrifugation (770×g; 4 mins) and washed with Geys Balanced Salt Solution with 1 mg/ml BSA (GBSS+BSA). This wash is then repeated, and the cells repelleted before being resuspended in a small volume of GBSS+BSA for counting, for example using a standard haemocytometer.
The volume of GBSS+BSA is then adjusted depending on the number of cells present so that the cells are at final density of 4.45×10^6 cells per ml of GBSS+BSA. This ensures that there are […] THP-1 cells in each 25 μl of the solution that will be placed in the upper chamber of the plate.
To test a single compound for its ability to inhibit MCP-1 induced migration, it is necessary to prepare two lots of cells. The suspension of THP-1 cells at 4.45×10^6 cells/ml is divided into two pots. To one pot the inhibitor under test is added at an appropriate final concentration, in an appropriate vehicle (for example at 1 μM in not more than 1% DMSO). To the second pot an equal volume of GBSS+BSA plus vehicle as appropriate (e.g. not more than 1% DMSO) is added to act as a control.
Next, the chemoattractant solution to be placed in the lower compartment is prepared. MCP-1 is diluted in GBSS+BSA to give a final concentration of 25 ng/ml. This is divided into two pots, as for the cell suspension. To one pot, the test compound is added to the same final concentration as was added to the cell suspension, while to the other pot an equal volume of GBSS+BSA plus vehicle as appropriate (e.g. not more than 1% DMSO) is added.
Note that the volume of liquid that needs to be added to make the addition of the text compound needs to be taken into account, when establishing the final concentration of MCP-1 in the solution for the lower compartment and the final concentration of cells in the upper compartment.
Once the chemoattractant solutions for the lower wells and cell solutions for the upper chambers have been prepared, the migration chamber should be assembled. Place 29 μl of the appropriate chemoattractant solution into the lower well of the chamber. Assays should be performed with at least triplicate determinations of each condition. Once all the lower chambers have been filled, apply the prous membrane to the chamber in accordance with the manufacturer's instructions. Finally, apply 25 μl of the appropriate cell solution to each upper chamber. A plastic lid is placed over the entire apparatus to prevent evaporation.
The assembled chamber is incubated at 37° C., 5% CO2, for 2 hours. A suspension of cells in GBSS+BSA is also incubated under identical conditions in a tube: these cells will be used to construct a standard curve for determining the number of cells that have migrated to the lower chamber under each condition. […]

[3] = cited from earlier work

Row | Molecule | EC50 [2] [nM] | further results
1 | C=CCCCCCCCCC(=O)[C@@H]1CCCNC1=O [(S)-3-(undec-10-enoyl)-tetrahydropyridin-2-one] |  | potency compared with the parental molecule [1]: considerably reduced potency; stability in human serum (Stability in serum): at least 7 days
2 | CCCCCCCCCCC(C)(C)C(=O)N[C@H]1CCCNC1=O [Example 3, (S)-3-(2′,2′-Dimethyldodecanoylamino)-tetrahydropyridin-2-one] | ≤ 100 | 
3 | c(DCys-DGln-DIle-DTrp-DLys-DGln-DLys-DPro-DAsp-DLeu-DCys)-NH2 ([dC][dQ][dI][dW][dK][dQ][dK][dP][dD][dL][dC]-NH2; disulfide 1-11 (inferred)) [NR58-3.14.3] |  | half-life period of clearance from blood plasma ([3]; after intravenous injection): less than 30 minutes; oral bioavailability ([3]; in vivo, po): not orally bioavailable

More lines, main results first:

Row | EC50 [2] [nM] | Molecule | further results
4 | ≤ 100 | CCCCCCCCCCC(C)(C)C(=O)N[C@H]1CCNC1=O [Example 4, (S)-3-(2′,2′-Dimethyldodecanoylamino)-pyrrolidin-2-one] | 
5 | ≤ 100 | CC1(C(=O)N[C@H]2CCCNC2=O)CCCCC1 [Example 5, (S)-3-(1′-Methylcyclohexanecarbonyl)amino-tetrahydropyridin-2-one] | 
6 | ≤ 100 | CC1(C(=O)N[C@H]2CCNC2=O)CCCCC1 [Example 6, (S)-3-(1′-Methylcyclohexanecarbonyl)amino-pyrrolidin-2-one] | 
7 | ≤ 100 | O=C1NCCC[C@@H]1NC(=O)C1(c2ccccc2)CCCCC1 [Example 7, (S)-3-(1′-Phenylcyclohexanecarbonyl)amino-tetrahydropyridin-2-one] | 
